One assay addresses radiolabelled octapeptide repeat peptide *acetyl…amide.
Conditions: not given
Consider “peptide 116, WLVWIA, on Toyopearl resin, free amino terminal”, for which the % unbound [14C] was 85%.

“peptide 110, IQIWIF, on Toyopearl resin, free amino terminal”: the % unbound [14C] came to 85%.

Molecule “peptide 97, QLGHQW, on Toyopearl resin, free amino terminal” returned a % unbound [14C] of 85%.

For “peptide 111, LWWLFV, on Toyopearl resin, free amino terminal”, the % unbound [14C] came out at 85%.

Turning to “peptide 101, WIPPYN, on Toyopearl resin, free amino terminal”, the % unbound [14C] worked out at 84%.

Another assay shares this target.
Conditions: not given
The source holds these as a separate data set.
As for FYVFTA (modifications not checked) [peptide 90/98, FYVFTA, on Toyopearl resin, free amino terminal], the % unbound [14C] was determined as 82%.

For the molecule WFPHFF (modifications not checked) [peptide 102, WFPHFF, on Toyopearl resin, free amino terminal], the % unbound [14C] was 64%.

For LLIWIP (modifications not checked) [peptide 84, LLIWIP, on Toyopearl resin, free amino terminal], the % unbound [14C] came to 89%.

Molecule LRVIIS (modifications not checked) [peptide 96, LRVIIS, on Toyopearl resin, free amino terminal] gave a % unbound [14C] of 90%.

In turn, YWFIYI (modifications not checked) [peptide 117, YWFIYI, on Toyopearl resin, free amino terminal] displayed a % unbound [14C] of 83%.

The molecule LLLVIA (modifications not checked) [peptide 94, LLLVIA, on Toyopearl resin, free amino terminal] had a % unbound [14C] of 83%.

As to LAWFWR (modifications not checked) [peptide 88, LAWFWR, on Toyopearl resin, free amino terminal], the % unbound [14C] worked out at 90%.

Molecule WLYWIP (modifications not checked) [peptide 85, WLYWIP, on Toyopearl resin, free amino terminal] had a % unbound [14C] of 90%.

In the case of GFFFWW (modifications not checked) [peptide 89, GFFFWW, on Toyopearl resin, free amino terminal], the % unbound [14C] was determined as 23%.

With YFIWWE (modifications not checked) [peptide 91, YFIWWE, on Toyopearl resin, free amino terminal], the % unbound [14C] was determined as 58%.

In turn, LEIRLA (modifications not checked) [peptide 93, LEIRLA, on Toyopearl resin, free amino terminal] displayed a % unbound [14C] of 96%.

On to IFFWIK (modifications not checked) [peptide 112, IFFWIK, on Toyopearl resin, free amino terminal], for which the % unbound [14C] amounted to 77%.

For QWWFII (modifications not checked) [peptide 114, QWWFII, on Toyopearl resin, free amino terminal], the % unbound [14C] was determined as 87%.

For the molecule RWIISL (modifications not checked) [peptide 113, RWIISL, on Toyopearl resin, free amino terminal], the % unbound [14C] was 89%.

In turn, TGIPII (modifications not checked) [peptide 118, TGIPII, on Toyopearl resin, free amino terminal] came in with a % unbound [14C] of 88%.

Regarding WEFYWF (modifications not checked) [peptide 86, WEFYWF, on Toyopearl resin, free amino terminal], the % unbound [14C] amounted to 76%.

The molecule YVFNWY (modifications not checked) [peptide 87, YVFNWY, on Toyopearl resin, free amino terminal] gave a % unbound [14C] of 45%.

On to VFEYIK (modifications not checked) [peptide 115, VFEYIK, on Toyopearl resin, free amino terminal], for which the % unbound [14C] came to 87%.

As for SLEEYV (modifications not checked) [peptide 95, SLEEYV, on Toyopearl resin, free amino terminal], the % unbound [14C] came out at 89%.

Regarding HKEQGA (modifications not checked) [peptide 119, HKEQGA, on Toyopearl resin, free amino terminal], the % unbound [14C] came to 91%.

In turn, SFPYYY (modifications not checked) [peptide 92, SFPYYY, on Toyopearl resin, free amino terminal] had a % unbound [14C] of 90%.

Molecule SNYGPY (modifications not checked) [peptide 99, SNYGPY, on Toyopearl resin, free amino terminal] returned a % unbound [14C] of 79%.

As to PFHPG (modifications not checked) [peptide 100, PFHPG, on Toyopearl resin, free amino terminal], the % unbound [14C] turned out to be 88%.

A further assay concerns the target radiolabelled octapeptide repeat *acetyl[…]amide (SEQ ID NO:2) (Homo sapiens, UniProt P04156).
Conditions: not given
Take GFFFWW [Peptide 89]: the “binding of octapeptide to resin (in words)” value is “highest affinity binder”.

The assay is the same for the next values; noted with them: pH 7.4.
Consider HKEQGA [Peptide 119], for which the “% unbound [14C]” value is 91%.

For WLVWIA [Peptide 116], the “% unbound [14C]” value stood at 85%.

For the molecule RWIISL [Peptide 113], the “% unbound [14C]” value is listed as 89%.

For the molecule PFHPG [Peptide 100], the “% unbound [14C]” value is on record as 88%.

For the molecule QLGHQW [Peptide 97], the “% unbound [14C]” value was found to be 85%.

For the molecule SFPYYY [Peptide 92], the “% unbound [14C]” value is listed as 90%.

QWWFII [Peptide 114]: the “% unbound [14C]” value is recorded as 87%.

As for LRVIIS [Peptide 96], the “% unbound [14C]” value was found to be 90%.

Consider YFIWWE [Peptide 91], for which the “% unbound [14C]” value amounted to 58%.

As for LLLVIA [Peptide 94], the “% unbound [14C]” value is recorded as 83%.

As to WLYWIP [Peptide 85], the “% unbound [14C]” value came out at 90%.

On to LEIRLA [Peptide 93], for which the “% unbound [14C]” value amounted to 96%.

Turning to IQIWIF [Peptide 110], the “% unbound [14C]” value is 85%.

As to WFPHFF [Peptide 102], the “% unbound [14C]” value is given as 64%.

For the molecule LAWFWR [Peptide 88], the “% unbound [14C]” value stood at 90%.

Turning to YWFIYI [Peptide 117], the “% unbound [14C]” value worked out at 83%.

Consider LLIWIP [Peptide 84], for which the “% unbound [14C]” value was found to be 89%.

As for WIPPYN [Peptide 101], the “% unbound [14C]” value was found to be 84%.

For TGIPII [Peptide 118], the “% unbound [14C]” value is 88%.

Regarding LWWLFV [Peptide 111], the “% unbound [14C]” value is recorded as 85%.

For the molecule SLEEYV [Peptide 95], the “% unbound [14C]” value is on record as 89%.

In the case of WEFYWF [Peptide 86], the “% unbound [14C]” value was found to be 76%.

Regarding IFFWIK [Peptide 112], the “% unbound [14C]” value worked out at 77%.

Take GFFFWW [Peptide 89]: the “% unbound [14C]” value stood at 23%.

On to VFEYIK [Peptide 115], for which the “% unbound [14C]” value was 87%.

With FYVFTA [90/98], the “% unbound [14C]” value turned out to be 82%.

Consider SNYGPY [Peptide 99], for which the “% unbound [14C]” value is listed as 79%.

As to YVFNWY [Peptide 87], the “% unbound [14C]” value worked out at 45%.

The values are drawn from US20040186273A1 (V.I. Technologies, Inc., priority 2000, published 2004).
